On the set-up of data set [1]: method as in manufacturers. Particulars: unconjugated dyes; ref manufacturers; cited from earlier work.
The conditions of data set [2]: ref 3 (supplement); cited from earlier work.
The test system of another data set is HT1080hFAP cells. Kind of data set: Radioactive-based cell efflux study. On the set-up: species or system human. The note with it: 2 h post-initial incubation. The protocol:
For cell efflux studies, 1.0 × 10^6 HT1080hFAP cells were seeded in 6-well plates and cultivated for 48 h. On the day of the experiment, the cells in each well were washed twice with 1.5 mL of culturing medium and then incubated with the Gallium-68 labelled radiotracer at a final concentration of 1 nM/well for 1 h at 37 °C. The medium containing the unbound radiotracer was then replaced with either fresh medium or a 1 µM FAPI-46 solution in cell medium for blocking condition.
Subsequently, at specific time points, the radioactive medium was removed and collected together with two PBS/0.5% (w/v) BSA washes before adding 1 mL of fresh medium or FAPI-46 blocking solution. Finally, 2 h after the end of the first incubation, the cells were lyzed with 1 mL of 1 M NaOH. All collected fractions were measured in the γ-counter and the percentage of cell-associated activity at different time points relative to the total, corresponding to 1 h after incubation, was reported. The number of experimental replicates performed for each assay is specified in the respective figure legends.

For another data set, the system named is HT1080hFAP tumor. Kind of data set: Static PET/CT imaging of xenografted mice. The class given is in vivo, BALB/c nude mice. Particulars: 1.0 nmol, one mouse per compound. As to the method: For the induction of tumor xenografts, 2 × 10^6 of HT1080hFAP or HT1080 cells in 100 μL appropriate medium were subcutaneously injected in the right and left flank of each mouse (athymic female BALB/c nude), respectively. The tumors were allowed to grow until they had reached a volume of 0.3 to 0.8 cm^3. […] To evaluate ex vivo biodistribution on tumor models, 3 mouse xenografts were injected with 0.25 nmol of Gallium-67 labelled tracer (0.4 MBq) and then sacrificed after 1 h, 4 h and 1 day. For the PET/CT imaging study one xenograft-bearing mouse (tumor volume in the range 0.6–1.0 cm^3) was injected with 1.0 nmol of Gallium-68 labelled tracer (5–8 MBq). […] The images were visualized, processed, and quantified in Mediso InterView FUSION (Mediso Medical Imaging Systems, Budapest, Hungary). […] The results were expressed as percentages of injected dose per gram tissue (% ID/g). For the comparative imaging study (SPECT and in vivo fluorescence imaging), one xenograft-bearing mouse (tumor volume in the range 0.2–0.7 cm^3) was injected with 1.5–2 nmol of Gallium-67 tracer (15–17 MBq) and imaged at various time points up to 2 days p.i. […] The images were visualized, processed, and quantified in Mediso InterView FUSION (Mediso Medical Imaging Systems, Budapest, Hungary). […] The fluorescence emission was reported as photons/s/mm^2.

Data on four molecules can be found in paper PMC12666486, “Novel dimeric dual-modality FAP-targeted agents with favorable tumor retention for image-guided surgery: a preclinical study” (European Journal of Nuclear Medicine and Molecular Imaging, 2025).

Consider `CC1(C)C(=CC=C2CCCC(C=CC3=[N+](CCC[N+](C)(C)C)c4ccc(S(=O)(=O)O)cc4C3(C)C)=C2Oc2ccc(CCC(=O)O)cc2)N(CCC[N+](C)(C)C)c2ccc(S(=O)(=O)O)cc21` [ZW800], for which, in data set [1], the Stokes shift was 18, the “λEm (nm)” value is 786 nm and the “λEx (nm)” value is given as 768 nm.
Take `CC(=O)NC1CCCN(O)C(=O)/C=C(/C)CCOC(=O)C(NC(C)=O)CCCN(O)C(=O)/C=C(/C)CCOC(=O)C(NC(C)=O)CCCN(O)C(=O)/C=C(/C)CCOC1=O` (centres unmarked) [TAFC]: the LogDpH7.4 in data set [2] is on record as -2.08 ± 0.02.
Turning to `CC1(C)C(=CC=C2CCCC(C=CC3=[N+](CCCCCC(=O)[O-])c4ccc(S(=O)(=O)[O-])cc4C3(C)C)=C2Oc2ccc(S(=O)(=O)[O-])cc2)N(CCCCS(=O)(=O)[O-])c2ccc(S(=O)(=O)[O-])cc21.[Na+].[Na+].[Na+].[Na+]` [IRDye-800CW], in data set [1], the Stokes shift is reported as 17, the “λEm (nm)” value is given as 792 nm and the “λEx (nm)” value is 775 nm.
Consider `CN(CCCN1CCN(C(=O)CN2CCN(CC(=O)[O-])CCN(CC(=O)[O-])CCN(CC(=O)[O-])CC2)CC1)c1ccc2nccc(C(=O)NCC(=O)N3CC(F)(F)C[C@H]3C#N)c2c1.[68Ga+3]` [[^68Ga]Ga-FAPI-46], for which the “Retained activity, % of the internalized fraction” value stood at 9.4 ± 1.5% in the data set on HT1080hFAP cells (blocking with 1 µM FAPI-46, 1 nM) and 21.9 ± 1.4% in the data set on HT1080hFAP cells (without blocking, 1 nM). For the same molecule, the “%ID/g in FAP(+)T (PET/CT, manually drawn ROI)” value was determined as 3.4 %ID/g in the data set on HT1080hFAP tumor (1h p.i.) and 3.1 %ID/g with HT1080hFAP tumor (2h p.i.).
